One molecule from US20160115225A1, “Methods of Reducing Methylglyoxal (MGO) Modification of Recombinant Proteins in Cell Culture” (AbbVie Inc., priority 2014, published 2016) can be followed below.

SMILES strings stand for the structures.

Holding throughout (assay type): cell-based
Assay [1] deals with adalimumab producing cell line 1. The assay is described as follows: Glucose consumption of the culture, cell line 1. The procedure:
(§1) For the bioreactor (3 L Applikon) experiments (Examples 1, 2 and 3), 3 L, bioreactors (1.5 L working volume) were initiated at 35° C. (cell line 1) and 36° C. (cell line 2), 30% DO, 200 rpm, pH of 7.1. In some of the conditions, pH was ramped down to 6.8 in three days and kept at pH 6.8 thereafter. The inclusion of pH ramp for a particular condition is indicated by the final pH in the experimental design. If the final pH is 7.1, then it indicates no pH ramp was performed, whereas if the final pH is 6.8, a pH ramp was performed on day 3 from pH 7.1 to pH 6.8. In some of the conditions, a temperature shift was performed. When temperature shift was performed, the temperature was lowered to 33° C. Again, the conditions where such a temperature shift was performed can be identified from the final temperature in the experimental design. Cultures were run in extended batch mode with the addition of a desired amount of 40% glucose stock solution was fed based on glucose measurements.
To assess if this reduction in MGO modification in the test conditions also corresponded to lower glucose consumption, the specific glucose consumption rate was calculated across the two phases of culture: average over day 0-day 5 and average over day 5-10 (period post temperature shift) (FIG. 4b). The specific glucose consumption rate in the conditions with 2DDG supplementation was lower in both phases. […] In the period post the temperature shift, up to 50% reduction in specific glucose consumption rate relative to that in the control was observed. Thus, a clear correlation has been observed between reduced glucose consumption and the extent of MGO modification of the peptides.
To further assess the applicability of this strategy, the cumulative glucose consumption levels were also evaluated for these conditions in this study (FIG. 6b). This was calculated by using daily glucose concentration measurements via the offline analyzer and by accounting for glucose feeds when added. […]

For assay [2], the system named is adalimumab producing cell line 2. Nature of the assay: Glucose consumption of the culture, cell line 2. The note with it: Example 4. As to the method: as §1
The objective of this experiment was to further evaluate the control of MGO synthesis/MGO protein modification through reduced glucose consumption in a different cell line, Cell line 2. […] As described in Example 3, extracellular MGO quantification was performed for day 7, 8 and 9 for the samples below and percentage of acidic species were quantified using WCX-10 analysis post protein A of cell culture harvests. […]

Assay [3] relates to adalimumab producing cell line 1. Nature of the assay: Cell growth, viability and titer, bioreactor culture, cell line 1. The note with it: Example 2; 2DDG 0.25 g/l; versus control. The procedure:
as §1, with “measurements. […]” for “measurements.”
The cells were grown to maximum viable cell densities (VCD) in the range of 10-14×10^6 cells/ml for the different conditions tested. […] Samples were subsequently analyzed using Poros A for titer and WCX-10 post protein A purification. Based on the WCX-10 chromatograms, the percentages of total peak(s) area corresponding to the acidic species were quantified. […]

Take `O=CC[C@@H](O)[C@H](O)[C@H](O)CO` [Test 2DDG, 2-Deoxy-D-Glucose]: the “specific glucose consumption rate” value in assay [1] (Example 2, 2DDG 0.25 g/l, day 0-day 5 and day 5-10, versus control) is on record as “lower”. Also, the glucose consumption entry in assay [1] (Example 3, 2DDG supplementation 0.25 g/l) is listed as “significant reduction”; in assay [2] (0.15 g/l 2DDG) it was “reduction”. Moreover, the glucose consumption rate entry in assay [2] (0.05 g/l 2DDG, compared to control) is reported as “not significantly lower”. Also, the “cell growth and viability profile” value in assay [3] was “slight increase”.
